Assay results taken from patent US11096942B2, “Heterocyclic compounds and uses thereof” (Celgene CAR LLC, priority 2010, dated 2021).
Where two headings read alike, the source gives them in different places.

Key:
[1] = test system: H1975 cells (EGFR L858R/T790M); assay: Cell proliferation (CellTiter Glo, 72 hr), H1975 cells; assay type: cell-based, human
Protocol: (§1) A431 human epidermoid carcinoma, H1975 human NSCLC and HCC827 human NSCLC adenocarcinoma cells were obtained from the American Type Culture Center (Manassas, Va.). A431 cells were grown in DMEM (Invitrogen, Carlsbad, Calif.) supplemented with 10% FBS (HyClone, South Logan, Utah) and 1% Penicillin-Streptomycin (P/S, Lonza, Walkersville, Md.).
(§2) Cells were plated in Growth Media supplemented with 5% FBS and 1% P/S at a density of 3,000 cells per well in 96 well tissue culture plates (Corning). […] Growth inhibition (GI50) values were determined by Graph Pad Prism.

[2] = test system: HCC827 cells (EGFR delE746-A750); assay: Cell proliferation (CellTiter Glo, 72 hr), HCC827 cells; assay type: cell-based, human
Protocol: as §1, §2

[3] = proliferation, WT EGFR (A431) vs H1975
[4] = proliferation, WT EGFR (A431) vs HCC827

SMILES	Ratio WT/mutant [1, 3]	Ratio WT/mutant [2, 4]	Ratio WT/mutant [1]	Ratio WT/mutant [2]
C=CC(=O)Nc1cccc(Oc2nc(Nc3ccc(N4CCOCC4)cc3OC(F)F)ncc2C(F)(F)F)c1 [Compound I-13, N-(3-(2-(2-(difluoromethoxy)-4-morpholinophenylamino)-5-(trifluoromethyl)pyrimidin-4-yloxy)phenyl)acrylamide]	>10	>50	–	–
C=CC(=O)Nc1cccc(Nc2nc(Nc3ccc(N4CCN(C(=O)OC(C)(C)C)[C@H](C(=O)OC)C4)cc3OC)ncc2C(F)(F)F)c1 [Compound I-50, (S)-1-tert-butyl 2-methyl 4-(4-(4-(3-acrylamidophenylamino)-5-(trifluoromethyl)pyrimidin-2-ylamino)-3-methoxyphenyl)piperazine-1,2-dicarboxylate]	>10	>50	–	–
C=CC(=O)Nc1cccc(Nc2nc(Nc3ccc(N4CCN(C(=O)CC)CC4)cc3OC)ncc2C(F)(F)F)c1 [Compound I-35, N-(3-(2-(2-methoxy-4-(4-propionylpiperazin-1-yl)phenylamino)-5-(trifluoromethyl)pyrimidin-4-ylamino)phenyl)acrylamide]	>10	>25	–	–
C=CC(=O)Nc1cccc(Oc2nc(Nc3ccc(N4CCN(C(=O)OC)CC4)cc3OC)ncc2C(F)(F)F)c1 [Compound I-20, methyl 4-(4-(4-(3-acrylamidophenoxy)-5-(trifluoromethyl)pyrimidin-2-ylamino)-3-methoxyphenyl)piperazine-1-carboxylate]	–	–	>5	>15
C=CC(=O)Nc1cccc(Nc2nc(Nc3ccc(N4CCOCC4)cc3OC)ncc2Cl)c1 [Compound I-15, N-(3-(5-chloro-2-(2-methoxy-4-morpholinophenylamino)pyrimidin-4-ylamino)phenyl)acrylamide]	>1	>10	–	–
C=CC(=O)Nc1cccc(Oc2nc(Nc3ccc(N4CCN(C(=O)CC(C)(C)C)CC4)cc3OC)ncc2Cl)c1 [Compound I-23, N-(3-(5-chloro-2-(4-(4-(3,3-dimethylbutanoyl)piperazin-1-yl)-2-methoxyphenylamino)pyrimidin-4-yloxy)phenyl)acrylamide]	>1	>20	–	–
C=CC(=O)Nc1cccc(Nc2nc(Nc3ccc(N4CCN(C(=O)OC)CC4)cc3OC)ncc2C(F)(F)F)c1 [Compound I-29, methyl 4-(4-(4-(3-acrylamidophenylamino)-5-(trifluoromethyl)pyrimidin-2-ylamino)-3-methoxyphenyl)piperazine-1-carboxylate]	>10	>15	–	–
C=CC(=O)Nc1cccc(Oc2nc(Nc3ccc(N4CCN(C(C)=O)CC4)cc3OC)ncc2Cl)c1 [Compound I-9, N-(3-(2-(4-(4-acetylpiperazin-1-yl)-2-methoxyphenylamino)-5-chloropyrimidin-4-yloxy)phenyl)acrylamide]	>5	>50	–	–
C=CC(=O)Nc1cccc(Oc2nc(Nc3ccc(N4CCOCC4)cc3OC(F)F)ncc2Cl)c1 [Compound I-36, N-(3-(5-chloro-2-(2-(difluoromethoxy)-4-morpholinophenylamino)pyrimidin-4-yloxy)phenyl)acrylamide]	>25	>50	–	–
C=CC(=O)Nc1cccc(Nc2nc(Nc3ccc(N4CCCOCC4)cc3OC)ncc2C(F)(F)F)c1 [Compound I-38, N-(3-(2-(2-methoxy-4-(1,4-oxazepan-4-yl)phenylamino)-5-(trifluoromethyl)pyrimidin-4-ylamino)phenyl)acrylamide]	>1	>5	–	–
C=CC(=O)Nc1cccc(Oc2nc(Nc3ccc(N4CCN(C(C)=O)CC4)cc3OC)ncc2C(F)(F)F)c1 [Compound I-10, N-(3-(2-(4-(4-acetylpiperazin-1-yl)-2-methoxyphenylamino)-5-(trifluoromethyl)pyrimidin-4-yloxy)phenyl)acrylamide]	>1	>20	–	–
